Source: patent publication US6413967B1, “Inhibition of novel calcium entry pathway in electrically non-excitable cells acting as an anti-proliferative therapy” (The University of Virginia Patents Foundation, priority 1995, dated 2002)

Assays:
[1] = tested on: VG Ca^2+ current in Jurkat cells; experiment: perforated patch clamp, voltage gated (VG) Ca2+ current; format: cell-based, human; conditions: for effect on the VG Ca^2+ current: amiloride 100 μM, MnCl2 300 μM, NiCl2 1 mM, W-7 alone (unstimulated current)
Procedure: (§1) All recordings were performed using the perforated patch method (Horn et al, J. Gen. Physiol. (1988) 92:145) of the gigaseal patch clamp technique (Hammil et al, Pflugers Arch (1981) 391:85) with microelectrodes of 5-10 megohm series resistance. In all solutions for voltage clamp, K^+ was replaced with Cs^+ to block outward K^+ currents (Fox et al, J. Physiol. (Lond.) (1987) 392:149). The bath solution contained (in mM): NaCl, 155; CsCl, 4.5; CaCl2, 2; MgCl2, 1; D-glucose, 5; HEPES, 10 (pH 7.4 with NaOH). The pipette solution contained (in mM): CsCl, 55; Cesium methanesulfonate, 70; CaCl2, 1; MgCl2, 7; HEPES, 10 (pH 7.3 with NaOH). Nystatin was made as a stock solution of 6 mg/100 μl DMSO, and 2 μl of the stock was added to 1 ml of the pipette solution for use. Both pipette and bath solutions were 290-300 mOsm. Experiments were performed on cells at room temperature using the Axopatch-1D patch clamp (Axon Instruments, Foster City, Calif.) after correction of junction potentials and leak subtraction. Records were low-pass filtered at 500 Hz, and the data were collected, stored and analyzed using the pClamp software program (Axon Instruments). For the non-voltage gated current traces, data is presented either as the tracing from a chart recorder or from the digital data in which the current was measured at 5 second intervals and plotted as individual points.

[2] = tested on: Ca^2+ entry pathway in Jurkat cells; experiment: thapsigargin-stimulated Ca2+ entry measured with Ca2+-sensitive dyes (indo-1, fluo-3); format: cell-based, human; conditions: 300 nM thapsigargin, amiloride 100 μM (fluo-3), Ni^2+ 1 mM, NDGA 10 μM (indo-1)
Procedure: Lymphocytes were suspended in culture medium at 37° C. for 1 h in the presence of 1 μM of the Ca^2+ indicator dye indo-1 /AM. Cells were washed twice in buffer A (140 mM NaCl, 3 mM KCl, 1 mM CaCl2, 1 mM MgCl2, 0.1% D-glucose, 1% FBS, 10 mM HEPES, pH 7.4) and were suspended at a final concentration of 1×10^6 cells/ml in buffer A. The excitation wavelength was 340 nm and emission was monitored at 398 nm in an SLM 8000 spectrofluorometer (SLM/Aminco, Urbana, Ill.), with the temperature maintained at 37° C. Data are plotted as relative fluorescence intensity at 398 nm as a measure of [Ca^2+]i. For FIG. 7, indo-1 emission was monitored at 398 nm and 480 nm and [Ca^2+]i was determined as described previously (Gray et al, J. Immunol (1987) 138:63; Haverstick et al, Mol. Biol. Cell (1993) 4:173).
Jurkat cells were loaded with indo-1/AM as described above. The excitation wavelength was 340 nm and emission was measured at 441 nm. The fluorescence of indo-1 at 441 nm is insensitive to changes in [Ca^2+]i (Sage et al, Biochem. J. (1989) 258:923) and is plotted as relative fluorescence intensity.
Because amiloride interferes with the fluorescence of indo-1 (Wacholtz et al, J. Immunol. (1992) 149:1912), fluo-3 was used to monitor [Ca^2+]i in the presence of amiloride. Jurkat cells were suspended in culture medium at 37° C. for 1 h in the presence of 1 μM fluo-3/AM and 1 mM probenecid to decrease dye leakage (DiVirgilio et al, Methods Cell Biol. (1989) 31:453). After two washes in buffer A, cells were suspended at a concentration of 1×10^6 cells/ml in buffer A with 1 mM probenecid and were maintained in a cuvette at 37° C. The excitation wavelength was 506 nm and the emission was monitored at 526 nm. Data are presented sa relative fluorescence intensity at 526 nm.

[3] = tested on: NVG current in Jurkat cells; experiment: perforated patch clamp, non-voltage gated (NVG) current; format: cell-based, human; conditions: membrane potential −60 mV, 300 nM thapsigargin, amiloride 100 μM, MnCl2 300 μM, NiCl2 1 mM, W-7 30 μM, NDGA 10 μM
Procedure: as §1

[4] = tested on: Ca^2+ entry pathway in Jurkat cells; conditions: previously demonstrated (Haverstick et al 1993); cited from earlier work
[5] = tested on: [Ca^2+]i in Jurkat T cells; experiment: receptor-stimulated Ca2+ influx in Jurkat T cells (anti-CD3 mAb OKT3); format: cell-based, human; conditions: Homo sapiens, Jurkat; maximal [Ca^2+]i after anti-CD3 mAb OKT3; drug 1 min prior
Procedure: Initially, all drugs are screened using Jurkat T cells incubated with indo-1/AM as outlined below. In the event that there is an effect of the drug on the maximum [Ca^2+]i reached following treatment of the cells with the anti-CD3 mAb […], the drug is evaluated for any effects on the spectral characteristics of indo-1 as outlined in Haverstick and Gray, Mol. Biol. Cell (1993) 4:173. If there is an effect of the drug on the spectral characteristics of indo-1 , the drug is further examined for spectral effects on the combination of fura-red and fluo-3. If there is no effect of the drug on the fura-red/fluo-3 combination, the drug is examined for effects on the maximum [Ca^2+]i reached following OKT3 treatment of cells incubated with 5 μM fura-red and […] as outlined below.
Jurkat cells are incubated in RPMI-1640 plus 5% fbs in the presence of the acetoxymethyl ester of either indo-1 (1 μM) or the combination of fura-red (5 μM) with fluo-3 (1 μM) for one hour at 37° C. Cells are washed three times in buffer A [[…] 4-(2-hydroxyethyl)-1-piperazine ethanesulfonic acid (HEPES), pH 7.4, 3 MM KCl, 1 mM MgCl2, 1 mM CaCl2, 140 mM NaCl, 0.1% glucose] containing 1% fbs and suspended to a final concentration of 1×10^6/ml. Cells are then placed in the 37° C. jacketed cell holder of the SLM 8000C. Antigen receptor engagement is mimicked by the addition of the anti-CD3 monoclonal antibody OKT3 (Gray et al, J. Exp. Med. (1988) 167:1963; Gray et al, J. Immunol. 142:1631). The effect of drug added prior to receptor stimulation or at the plateau phase of Ca^2+ entry is determined as follows:
Prior drug: 10 or 30 μM drug @ 30 seconds, 1 μg/ml OKT3 at 90 seconds
Post drug: 1 μg/ml OKT3 at 30 second, 10 or 30 μM drug @ 120 seconds

[6] = tested on: [Ca^2+]i in MDA-468 cells; experiment: EGF receptor-stimulated Ca2+ influx in MDA-468 cells; format: cell-based; conditions: Homo sapiens; maximal [Ca^2+]i, Ca^2+ entry triggered by 50 ng/ml EGF
[7] = tested on: MDA-468 human breast cancer cells; experiment: MDA-468 cell proliferation, tetrazolium dye; format: cell-based; conditions: Homo sapiens; incubation 44 to 48 h; read-out: MDA-468 prolif IC50
Procedure: (§2) The effect of various drugs on the proliferation of Jurkat T cells, MDA-468 human breast cancer cells and PC3 human prostate cancer cells was determined by incubating the cells with the indicated concentrations of drug for 48 hours. The number of viable cells remaining at the end of the incubation period was evaluated using the procedure outlined in Example 4.
(§3) Cells are plated in triplicate in a 96-well flat-bottomed plate (Jurkat: 5e4 cells/well in RPMI-1640 plus 5% fbs; MDA468: 2.5e4 per well in DMEM plus 5% fbs and 11 μg/ml insulin) in the absence (control) or presence of drug at 3, 10, 30, and 100 μM. An additional control of 100 μM drug in RPMI-1640 plus 5% fbs or DMEM plus 5% fbs and 11 μg/Ml insulin with no cells is included with each run to control for possible drug interactions with the dye. The plate is then placed in a 5% CO2 37° C. incubator for 44 to 48 hours. 20 μl of dye solution containing a tetrazolium dye (3-(4,5-dimethylthiazol-2-yl)-5-(3-carboxymethoxyphenyl)-2-(4-sulfophenyl)-2H-tetrazolium, Owen's reagent) plus coupling reagent (phenazine methosulfate) is added to each well, the plate is returned to the incubator, and the absorbance at 490 nm is read using an ELISA plate reader 3 to 4 h (Jurkat cells) or 2 to 3 h (MDA-468 cells) later. All data are presented as percent of control (no drug addition). With this protocol, it is possible to determine the effect of 5 drugs at 4 concentrations in a single 96-well plate as outlined below: […]

Jurkat T cells = experiment: Jurkat cell proliferation, tetrazolium dye; format: cell-based, human; conditions: Homo sapiens, Jurkat; incubation 44 to 48 h; read-out: JURKAT prolif IC50
Procedure: as §2, §3

[8] = tested on: human prostate cancer cell line PC3; experiment: PC3 cell proliferation, tetrazolium dye; format: cell-based; conditions: PC-3, 5×10^4 PC3 cells, 48 hours

In the case of `[Cl][Ni][Cl]` [Ni^2+, NiCl2], the “effect on the VG Ca^2+ current” value [1] is reported as “eliminated the VG Ca^2+ current”, the “effect on thapsigargin-stimulated Ca^2+ entry” value [2] is reported as “blocked Ca^2+ entry” and the “effect on the thapsigargin-induced NVG current” value [3] is reported as “blocked”.

For `NCCCCCCNS(=O)(=O)c1cccc2c(Cl)cccc12` [W-7, N-(6-aminohexyl)-5-chloro-1-naphthalenesulfonamide], the “effect on the VG Ca^2+ current” value [1] is listed as “not affected”, the “effect on thapsigargin-mediated augmentation of the VG Ca^2+ current” value ([1]; drug added before 300 nM thapsigargin, W-7 30 μM) is listed as “blocked the augmentation” and the “effect on Ca^2+ influx induced by thapsigargin, by Ca^2+-sensitive dyes” value [4] is listed as “eliminates”. The “effect on the thapsigargin-induced NVG current” value [3] was “not affected”.

For `N=C(N)NC(=O)c1nc(Cl)c(N)nc1N` [amiloride], the “effect on the VG Ca^2+ current” value [1] was “not blocked”, the “effect on thapsigargin-stimulated Ca^2+ entry” value [2] was “no effect” and the “effect on the thapsigargin-induced NVG current” value [3] was “virtually eliminated”. The “effect on the thapsigargin-induced NVG current” value ([3]; listed as Amiloride) was “completely inhibited”.

In the case of `CN(C)CCCN1c2ccccc2Sc2ccc(Cl)cc21` [chloropromazine, 2-chloro-10-[3-dimethylaminopropyl]-phenothiazine], the IC50 [5] is reported as 25 µM, the IC50 [6] is reported as 5 µM and the IC50 [7] is reported as 20 µM. For the same compound, the IC50 (Jurkat T cells) was 90 µM.

In the case of `CC(CN1c2ccccc2Sc2ccccc21)N(C)C` (stereo not drawn) [promethazine, N,N,α-trimethyl-10H -phenothiazine-10-ethanamine], the IC50 [5] is reported as 65 µM, the IC50 [6] is reported as 105 µM and the IC50 [8] is reported as about 40 µM. It also gave an IC50 [7] of 30 µM and an IC50 (Jurkat T cells) of 3.5 µM.
